According to patent US20030138856A1, “Process for the measurement of dinophysistoxin and yessotoxin” (priority 2000, published 2003):

Test system: E-cadherin and related antigens ECRA100 and ECRA135 in MCF-7 cells
Test: E-cadherin, ECRA135 and ECRA100 levels in cytosoluble extracts of toxin-treated MCF-7 cells (SDS-PAGE, anti-E-cadherin immunoblotting, densitometry)
Type: cell-based, human
Conditions: for pattern of E-cadherin and related antigens on immunoblot (FIG. 1): 50 nM each agent, 18 hr at 37° C.; for concentration above which the pattern characteristic for each group of toxins is maintained when the two groups are present at the same time: both toxins together in the cell culture
Description: The MCF-7 cell line employed in these experiments has been obtained from the European Collection of Cell Cultures (ECACC No: 86012803; CB No: CB2705). Cells have been maintained at 37° C. in an atmosphere containing 5% CO2 in Petri dishes, in a culture medium composed of Dulbecco's modified MEM, containing foetal bovine serum (10%), nonessential aminoacids (1%) and 2 mM glutamine. Cell treatments have been carried out by adding appropriate aliquots of toxins from stock solutions prepared with absolute ethanol, and control cultures received an identical volume of vehicle. Working solutions of the different agents were obtained by serial dilutions of stock solutions, represented by 50 μM okadaic acid and 500 μM yessotoxin, respectively, and were stored at −20° C., in glass vials, protected from light. The ethanol concentrations in culture media has never been higher than 0.5% (v/v), which represents a concentration uncapable to affect the molecular parameters measured in these experiments.
The cellular extracts employed in the present analyses have been obtained from the cells adhering to culture vessels at the end of the indicated treatments, and the procedure was carried out at 4° C. Cells were washed three times with 20 mM phosphate buffer, pH 7.4, containing 0.15 M NaCl (PBS) and were then lysed by the addition of 25 μl of lysis buffer/cm^2 of culture surface area, and by keeping cells in contact with this solution for 10 minutes at 4° C. The lysis buffer was composed of PBS, containing: 0.5% (w/v) Na deoxycholate, 0.1% (w/v) Na dodecylsulfate (SDS), 1% (v/v) Triton X-100, 0.1 mg/ml phenylmethyl sulfonyl fluoride (PMSF). Cellular lysates were then centrifuged for 30 minutes at 16000 xg, and the supernatants of this centrifugation (cytosoluble extracts) were recovered and used to measure their total protein content by a […] method, using bicinchoninic acid (Smith P. K et al., 1985, Anal. Biochem., 150:76). Cytosoluble extracts were then brought to a final 2% SDS, 5% β-mercaptoethanol and 20% glycerol concentration, and were treated for 5 min at 100° C., before being used for protein fractionation by electrophoresis.
Samples, usually containing the same amount of protein, corresponding to about 50 μg, were subjected to polyacrylamide gel electrophoresis in the presence of SDS, according to the procedure by Laemmli (Laemmli U. K. , 1970, Nature, 227:680), using separating gels containing 10% acrylamide monomer. At the end of the electrophoresis (running time about 3 hr at 170 Volts), proteins were electrophoretically transferred to a nitrocellulose membrane (Protran B83), and were then stained with Ponceau S.
Aspecific binding sites on the membrane were then saturated by a 1 hr incubation at room temperature with a solution composed of 20 mM Tris-HCl, pH 7.5 at 25° C., 150 mM NaCl (TBS), containing 3% (w/v) low fat dry milk and 1 mM CaCl2. The membrane was then incubated with TBS containing 1 % (w/v) low fat dry milk, 1 mM CaCl2, and 2 μg of anti-E-cadherin antibody/ml buffer, for 1 hr at room temperature. At the end of the incubation the membrane was washed four times for 5 min and then a fifth time for 10 min with TBS containing 0.05% (w/v) Tween 20 (TBS-Tween buffer). The membrane was then incubated with TBS-Tween containing 1% (w/v) low fat dry milk and secondary antibody (horse radish peroxydase conjugated anti-mouse Ig antibody) at a 1:3000 dilution, for 1 hr at room temperature. At the end of this incubation, the membrane was washed as previously described, and the antigens were then detected by the ECL procedure and autoradiography, using Kodak X-Omat films. The electropherogram was then subjected to densitometric scanning, and the absorbance measured from the peak area was recorded and used to quantify the detected antigens. […]

[1] = MCF-7 cells treated with 50 nM OA
[2] = MCF-7 cells, YTX 1 μM, 24 hr incubation, n=4

C=C1[C@@H](O)[C@@H]2O[C@]3(CC[C@H](/C=C/[C@@H](C)[C@@H]4CC(C)=C[C@@]5(O[C@H](C[C@@](C)(O)C(=O)O)CC[C@H]5O)O4)O3)CC[C@H]2O[C@@H]1[C@@H](O)C[C@H](C)[C@H]1O[C@@]2(CCCCO2)CC[C@H]1C [OA, okadaic acid]
E-cadherin, % of total immunoreactivity [1]: 77.6±12.3%
ECRA100, % of total immunoreactivity [1]: 1.8±3.1%
ECRA135, % of total immunoreactivity [1]: 20.6±9.6%
relative total immunoreactivity (Σ), % of that in extracts from control cells [1]: 15.4±8.7%
pattern of E-cadherin and related antigens on immunoblot (FIG. 1) (MCF-7 cells): appearance of ECRA135
OA concentration at which ECRA100 levels are minimal (MCF-7 cells, 20 hr): higher than 50 nM
OA concentration at which ECRA135 level is maximal (MCF-7 cells, 20 hr): 75 nM
OA concentration at which detection of ECRA135 starts (MCF-7 cells, 20 hr): 20 to 30 nM
OA concentration at which the decrease in immunoreactive material (Σ) can be detected (MCF-7 cells, 20 hr): higher than 10 nM
OA concentration at which the decrease in immunoreactive material (Σ) is maximal (MCF-7 cells, 20 hr): higher than 75 nM
equivalent OA concentrations within which proportionality in the assay is kept (MCF-7 cells, 20 hr): 30 to 75 nM
equivalent OA concentrations within which proportionality in the assay is kept, as mass concentration (MCF-7 cells, 20 hr, corresponding to 30-75 nM): 25-60 ng OA/ml
concentration above which the pattern characteristic for each group of toxins is maintained when the two groups are present at the same time: higher than 35 nM

C=CCC(=C)/C=C/[C@@](C)(O)[C@H]1O[C@@H]2C[C@@H]3O[C@@H]4C[C@@H]5O[C@@H]6C[C@@H]7O[C@@H]8C[C@@H]9O[C@@H]%10C[C@@H]%11O[C@](C)(CCOS(=O)(=O)O)[C@@H](OS(=O)(=O)O)C[C@H]%11O[C@H]%10C[C@H]9O[C@H]8CC[C@@]7(C)O[C@@]6(C)CC[C@H](C)[C@H]5O[C@H]4C[C@@]3(C)O[C@H]2CC1=C [YTX, yessotoxin]
ECRA135 detection after treatment with YTX alone (MCF-7 cells): never been detected
pattern of E-cadherin and related antigens on immunoblot (FIG. 1) (MCF-7 cells): most immunoreactivity is associated with the 100 kDa (101.9±3.2 kDa) band
YTX concentration at which the increase in immunoreactive material (Σ) is detectable (MCF-7 cells, 20 hr): about 0.2 nM
YTX concentration at which the increase in immunoreactive material reaches maximal levels (MCF-7 cells, 20 hr): ≥ 1 nM
equivalent YTX concentrations within which proportionality in the assay is maintained, as mass concentration (MCF-7 cells, 20 hr, corresponding to 0.2-0.5 nM): 240-600 pg YTX/ml
ECRA135 detection (MCF-7 cells, YTX 1 μM, 24 hr incubation): undetectable
E-cadherin, share of total immunoreactivity [2]: 52.0±1.7
ECRA100, share of total immunoreactivity [2]: 48.0±1.7
relative total immunoreactivity (Σ), as compared to controls [2]: 190±32%
E-cadherin level, percentage of total immunoreactivity (E-cadherin+ECRA100+ECRA135) of the sample ([YTX] ≧0.5 nME/[DTX] <25 nME): 40-60%
ECRA100 level, percentage of total immunoreactivity of the sample ([YTX] ≧0.5 nME/[DTX] <25 nME): 40-60%
relative total immunoreactivity (Σ), percentage of total immunoreactivity in the controls ([YTX] ≧0.5 nME/[DTX] <25 nME): 150-250%
concentration above which the pattern characteristic for each group of toxins is maintained when the two groups are present at the same time: > 0.4 nM
